Experiments:
[1] = silk microspheres, depending on processing pH; cited from earlier work
[2] = Doxorubicin storage stability in silk films/MPAs versus solution (fluorescence); assay type: physicochemical; conditions: 3 weeks at −20° C. and 60° C.; excitation 430, emission 550
Description: Silk films for degradation and stability studies were prepared by casting of 6% (w/v) silk solution containing 1.0 mg/mL doxorubicin on a patterned mold. After drying at ambient conditions for 48 hours the samples were removed and vapor annealed for 24 hours as previously described (Jin et al., 2005).
After 3 weeks, the silk films were degraded with 10 mg/mL proteinase k for 6 hours, and doxorubicin concentration for all samples was determined by comparing fluorescence to a standard curve of known concentrations (excitation=430, emission=550).
The silk DxR-MPA was evaluated at different time points for optical performance and drug content eluted by measuring absorbance at 495 nm and comparing measured values to a standard curve (FIGS. 11A & 33). […] The doxorubicin-loaded silk-MPAs were stored at −20° C.

[3] = Binding of doxorubicin to silk carrier; assay type: physicochemical; conditions: typically
Description: In addition to having properties which make silk well suited to drug delivery in general, silk is uniquely suited to deliver doxorubicin, as we have observed that doxorubicin interacts strongly with the silk. […] The interaction between the silk and the doxorubicin also results in a large fraction (typically more than 50%) of the total doxorubicin dose is bound to the carrier. In some embodiments, therefore, the carrier may be proteolytically degraded to enhance release the bound doxorubicin. This provide an opportunity to design protease-triggered drug release systems. […] Degradation-mediated drug release from silk biomaterials can be used to design systems that provide drug locally proportionately to disease progression: aggressive disease/increased proteolysis would degrade the silk carrier more rapidly, releasing larger doses of drug than in healthy tissue.

Row | doxorubicin fluorescence after storage [2] | fraction of the total doxorubicin dose bound to the carrier [3] | Compound | fraction released [1]
1 |  |  | CN(C)c1ccc(C(=C2C=CC(=[N+](C)C)C=C2)c2ccc(N(C)C)cc2)cc1 [crystal violet] | 25-60%
2 | decreases | more than 50% | COc1cccc2c1C(=O)c1c(O)c3c(c(O)c1C2=O)C[C@@](O)(C(=O)CO)C[C@@H]3O[C@H]1C[C@H](N)[C@H](O)[C@H](C)O1 [doxorubicin] | 
